# ChEMBL document CHEMBL5260832, “Hepatoprotective natural triterpenoids” (Eur J Med Chem, 2018)
# What was measured:
# [1] = species: Mus musculus; experiment: Hepatoprotective activity against D-GaIN/LPS induced liver injury mouse model assessed as increase in sAST relative to control; type: functional
# [2] = tested on: Mus musculus; experiment: Hepatoprotective activity against D-GaIN/LPS induced liver injury mouse model assessed as reduction in sAST at 100 mg/kg, ip relative to control; type: functional; design: scale not given: the % may be the effect or the level left
# [3] = tested on: Mus musculus; experiment: Hepatoprotective activity against D-GaIN/LPS induced liver injury mouse model assessed as reduction in sALT at 100 mg/kg, ip relative to control; type: functional; design: scale not given: the % may be the effect or the level left
# [4] = species: Mus musculus; experiment: Hepatoprotective activity against D-GaIN/LPS induced liver injury mouse model assessed as increase in sALT relative to control; type: functional
# [5] = tested on: HepG2; experiment: Hepatoprotective activity against H2O2-induced human HepG2 cells assessed as increase in AST level; type: functional
# [6] = tested on: HepG2; experiment: Hepatoprotective activity against H2O2-induced human HepG2 cells assessed as increase in ALT level; type: functional
# [7] = tested on: Mus musculus; experiment: Hepatoprotective activity against D-GaIN/CCl4 induced liver injury mouse model assessed as reduction in GPT level at 1.0 microg/ml, iv relative to control; type: functional; design: scale not given: the % may be the effect or the level left; conditions: dose 1 µg/ml
# [8] = Hepatotoxicity in rat assessed as reduction in GPT level at 0.01 mg/mL measured after 48 hrs (reference value: 291 IU/L); type: toxicity; conditions: in vivo
# [9] = tested on: Hepatocyte; experiment: Hepatoprotective activity against D-GaIN/TNFalpha-induced cell death in mouse hepatocyte at 50 uM relative to control; type: functional
# [10] = tested on: Hepatocyte; experiment: Hepatoprotective activity against D-GaIN/TNFalpha-induced cell death in mouse hepatocyte at 100 uM relative to control; type: functional, cell-based; conditions: dose 100 µM
# [11] = tested on: Hepatocyte; experiment: Hepatoprotective activity against D-GaIN/TNFalpha-induced cell death in mouse hepatocyte at 200 uM relative to control; type: functional
# [12] = Hepatoprotective activity against D-Galactosamine-induced toxicity in rat WB-F344 cells assessed as cell survival rate at 10 uM relative to control; type: functional
# [13] = Hepatoprotective activity against D-GaIN - induced toxicity in rat WB-F344 cells assessed as inhibition of cell growth relative to control; type: functional; design: scale not given: the % may be the effect or the level left
# [14] = Cytotoxicity against human HepG2 cells assessed as reduction in cell viability by SRB assay; type: toxicity, cell-based
# [15] = tested on: Mus musculus; experiment: Hepatoprotective activity in mouse model of D-GaIN/LPS-induced liver injury assessed as inhibition of sAST secretion at 100 mg/kg, po relative to control; type: functional
# [16] = tested on: Hepatocyte; experiment: Hepatoprotective activity against D-GaIN-induced toxicity in mouse hepatocyte relative to control; type: functional, cell-based
# [17] = tested on: Hepatocyte; experiment: Hepatoprotective activity against D-GaIN/TNFalpha-induced cell death in mouse hepatocyte at 100 uM; type: functional, cell-based
# [18] = tested on: Mus musculus; experiment: Hepatoprotective activity in mouse model of D-GaIN/LPS-induced liver injury assessed as inhibition of sALT level secretion at 100 mg/kg, po relative to control; type: functional
# [19] = tested on: Rattus norvegicus; experiment: Hepatoprotective activity in GaIN-induced rat model of liver injury assessed as reduction in ALT level at 4 mg/kg relative to control; type: functional; design: scale not given: the % may be the effect or the level left
# [20] = tested on: Hepatocyte; experiment: Hepatoprotective activity against H2O2-induced cell damage in rat hepatocyte assessed as reduction in cell growth; type: functional, cell-based
smiles,measurement,setting,value
CC(C)=CCC[C@](C)(O)C1CC[C@]2(C)[C@@H]1[C@H](O[C@H]1O[C@@H](CO[C@H]3OC[C@H](O)[C@@H](O)[C@@H]3O)[C@H](O)[C@@H](O)[C@@H]1O)C[C@@H]1[C@@]3(C)CC[C@H](O[C@@H]4O[C@H](CO)[C@@H](O)[C@H](O)[C@H]4O[C@@H]4O[C@H](CO)[C@@H](O)[C@H](O)[C@H]4O)C[C@@H]3CC[C@]12C (stereo not given in full),Activity,[1],40%
same,Activity,[2],40%
same,Activity,[3],33%
same,Activity,[4],33%
CC(C)=CCC[C@](C)(O)C1CC[C@]2(C)[C@@H]1[C@H](O[C@H]1O[C@@H](CO[C@@H]3O[C@@H](CO)[C@H](O)[C@H]3O)[C@H](O)[C@@H](O)[C@@H]1O)C[C@@H]1[C@@]3(C)CC[C@H](O[C@@H]4O[C@H](CO)[C@@H](O)[C@H](O)[C@H]4O[C@@H]4O[C@H](CO)[C@@H](O)[C@H](O)[C@H]4O)C[C@@H]3CC[C@]12C (stereo not given in full),Activity,[1],87%
same,Activity,[2],40%
same,Activity,[3],33%
same,Activity,[4],89%
COC(=O)C(C)[C@@H](O)C(=O)C[C@@H](C)[C@H]1C[C@H](O)[C@@]2(C)[C@@H]3C(=O)C[C@H]4C(C)(C)[C@@H](O)CC[C@]4(C)[C@H]3C(=O)C[C@]12C (stereo not given in full),Activity,[5],19.5 U/L
same,Activity,[6],18.51 U/L
CC1(C)C[C@H]2C3=C[C@@H](O)[C@@H]4[C@@]5(C)CCC(=O)C(C)(C)C5CC[C@@]4(C)[C@]3(C)CC[C@@]2(C(=O)O)CC1=O (stereo not given in full),Activity,[7],24%
C[C@@]1(CO)CC[C@]2(C(=O)O[C@@H]3O[C@H](CO[C@@H]4O[C@H](CO)[C@@H](O)[C@H](O)[C@H]4O)[C@@H](O)[C@H](O[C@@H]4O[C@H](CO)[C@@H](O)[C@H](O)[C@H]4O)[C@H]3O)CC[C@]3(C)C(=CC[C@@H]4[C@@]5(C)CC[C@H](O[C@@H]6O[C@H](CO)[C@@H](O)[C@H](O)[C@H]6O)[C@@](C)(C(=O)O)[C@@H]5CC[C@]43C)[C@@H]2C1,Activity,[8],253 IU/L
CC1(C)CC[C@]2(C(=O)O)CC[C@]3(C)[C@H](C=C[C@@H]4[C@@]5(C)C[C@@H](O)[C@H](O)[C@@](C)(CO)[C@@H]5CC[C@]43C)[C@H]2[C@@H]1O,Activity,[9],8%
same,Activity,[10],8%
same,Activity,[11],8%
CC1(C)CC[C@]2(C(=O)O[C@@H]3O[C@H](CO)[C@@H](O)[C@H](O)[C@H]3O[C@@H]3OC[C@@H](O)[C@H](O)[C@H]3O)CC[C@]3(C)C(=CC[C@@H]4[C@@]5(C)C[C@@H](O)[C@@H](O)C(C)(C)[C@@H]5CC[C@]43C)[C@@H]2[C@@H]1O,Activity,[12],68%
same,Activity,[13],68%
CC1(C)C[C@H]2C3=CC[C@@H]4[C@@]5(C)CCC(=O)C(C)(C)C5CC[C@@]4(C)[C@]3(C)CC[C@@]2(C(=O)O)CC1=O (stereo not given in full),Activity,[7],43%
CC1=C[C@@]2(C[C@H]([C@H]3CC[C@@]4(C)[C@@H]5CC[C@H]6C(C)(C)[C@@H](O)C=C[C@@]67C[C@@]57CC[C@]34C)[C@@H](O)O2)OC1=O,EC50,[14],123 µM
C[C@@H]1CC[C@]2(C(=O)O[C@@H]3O[C@H](CO)[C@@H](O)[C@H](O)[C@H]3O)CC[C@]3(C)C(=CC[C@@H]4[C@@]5(C)C[C@@H](O)[C@H](O)C(C)(C)[C@@H]5CC[C@]43C)[C@@H]2[C@]1(C)O,inhibition in vivo at 100 mg/kg,[15],65.2%
same,IC50,[16],35.5 µM
same,IC50,[17],55.7 µM
same,inhibition in vivo at 100 mg/kg,[18],71.1%
COC(=O)[C@]12CC[C@@H](C)[C@H](C)[C@H]1C1=CC[C@@H]3[C@@]4(C)C[C@@H](OC(C)=O)C(=O)[C@@](C)(C=O)[C@@H]4CC[C@@]3(C)[C@]1(C)CC2,Activity,[19],66.4%
C[C@@H]1CC[C@]2(C(=O)O[C@@H]3O[C@H](CO)[C@@H](O)[C@H](O)[C@H]3O)CC[C@]3(C)C(=CC[C@@H]4[C@@]5(C)C[C@@H](O)[C@@H](O)C(C)(C)[C@@H]5CC[C@]43C)[C@@H]2[C@]1(C)O,inhibition in vivo at 100 mg/kg,[15],59.7%
same,IC50,[16],14.1 µM
same,inhibition in vivo at 100 mg/kg,[18],57.2%
CC1=C[C@]2(C=C([C@H]3CC[C@@]4(C)[C@@H]5CC[C@H]6C(C)(C)C(=O)C=C[C@@]67C[C@@]57CC[C@]34C)C(=O)N2)OC1=O,EC50,[20],126 µM
CC1(C)CC[C@]2(C(=O)O[C@@H]3O[C@H](CO)[C@@H](O)[C@H](O)[C@H]3O[C@@H]3OC[C@@H](O)[C@H](O)[C@H]3O)CC[C@]3(C)C(=CC[C@@H]4[C@@]5(C)C[C@@H](O)[C@@H](O)[C@@](C)(CO)[C@@H]5CC[C@]43C)[C@@H]2[C@@H]1O,Activity,[12],64%
same,Activity,[13],64%
